Test results published in patent US12378294B2, “IL-4 derived peptides for use in the treatment of obesity” (SERODUS APS, priority 2022, dated 2025).
“And” between values parts separate entries of the source, which are not always exact repeats. Equal values may be shown once. Where no end group is shown, it is not given here.

Key:
[1] = system: female mice (BKS.Cg-Dock7m+/+Leptin db/db BLKS); assay: Effect of an IL-4 derived peptide on body weight in db/db mice; type: in vivo; details: for Effect on weight / weight gain compared to vehicle: treatment group vs vehicle/placebo group, 77 days s.c. once daily
Procedure: 30 female mice (BKS.Cg-Dock7m+/+Leptin db/db BLKS, 5 weeks of age) were transferred to the Gubra Research animal unit in Denmark. Throughout the habituation and study period, the animals were housed in a light-, temperature-, and -humidity-controlled room with free access to food and water. All animal experiments were conducted in accordance with Gubra bioethical guidelines, which are fully compliant with internationally accepted principles for the care and use of laboratory animals. The body weight of the animals was recorded at the start of the study (baseline), on day 13, day 27, day 34, day 43, day 60 and day 77 (termination of study).
Compound A was prepared using standard solid phase peptide synthesis (SPPS) procedures. Compound A was provided by Phlogo ApS, Copenhagen, Denmark (10 mg/ml miliQ water diluted to the dose formulations). Vehicle was miliQ:PBS 1:5.
The mice were randomized into a vehicle group (n=15) and a 10 mg/kg Compound A (n=15). The compound as well as the vehicle was administered subcutaneously once daily. On day 27, the dose was lowered to 5 mg/kg Compound A (n=15), and on day 43, the dose was lowered to 2.5 mg/kg Compound A (n=15).

IL-4 receptors = molecular target: T1, IL-4 receptors (Homo sapiens, UniProt P24394); details: cited from earlier work
T1 sequence (P24394 26-825): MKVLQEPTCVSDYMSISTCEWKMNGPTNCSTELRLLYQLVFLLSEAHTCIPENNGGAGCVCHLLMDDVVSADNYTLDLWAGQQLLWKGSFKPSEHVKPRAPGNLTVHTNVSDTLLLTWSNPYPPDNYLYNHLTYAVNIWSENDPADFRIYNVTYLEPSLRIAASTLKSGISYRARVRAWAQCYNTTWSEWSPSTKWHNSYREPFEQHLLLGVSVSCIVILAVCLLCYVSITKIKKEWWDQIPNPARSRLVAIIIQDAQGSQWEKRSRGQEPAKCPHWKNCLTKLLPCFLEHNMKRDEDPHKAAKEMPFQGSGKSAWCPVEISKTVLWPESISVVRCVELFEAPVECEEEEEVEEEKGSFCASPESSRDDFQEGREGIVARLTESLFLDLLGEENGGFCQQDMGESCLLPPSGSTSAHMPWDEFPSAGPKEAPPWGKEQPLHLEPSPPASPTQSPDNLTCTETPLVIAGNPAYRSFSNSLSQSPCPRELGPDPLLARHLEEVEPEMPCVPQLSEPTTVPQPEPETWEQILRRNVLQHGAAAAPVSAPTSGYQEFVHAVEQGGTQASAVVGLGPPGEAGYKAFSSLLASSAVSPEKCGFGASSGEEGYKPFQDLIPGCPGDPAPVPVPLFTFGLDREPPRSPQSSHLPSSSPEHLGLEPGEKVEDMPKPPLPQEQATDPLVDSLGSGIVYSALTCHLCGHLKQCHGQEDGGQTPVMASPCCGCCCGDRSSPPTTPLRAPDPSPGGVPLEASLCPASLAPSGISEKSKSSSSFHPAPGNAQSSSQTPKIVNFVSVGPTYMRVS

macrophages = details: cited from earlier work
type I IL-4R = molecular target: T2, type I IL-4R (Homo sapiens, UniProt P24394); details: cited from earlier work
T2 sequence (P24394 26-825): T1 sequence (P24394 26-825)

type II IL-4R = molecular target: T3, type II IL-4R (Homo sapiens, UniProt P24394); details: cited from earlier work
T3 sequence (P24394 26-825): T1 sequence (P24394 26-825)

Substance	Δ Weight ([1]; individual animals 1-15 of treatment group, day 77 minus baseline, s.c. once daily, 10 then 5 then 2.5 mg/kg)	Weight at day 77 ([1]; individual animals 1-15 of treatment group, s.c. once daily, 10 mg/kg, lowered to 5 mg/kg on day 27 and 2.5 mg/kg on day 43, day 77)	Δ Weight (g), mean ([1]; mean of treatment group (n=15), baseline to day 77, s.c. once daily, 10 then 5 then 2.5 mg/kg, placebo mean 5.76) [g]	Weight at day 77 (g), mean ([1]; mean of treatment group (n=15), s.c. once daily, 10 then 5 then 2.5 mg/kg, placebo mean 50.64) [g]	Weight increase during the study period ([1]; treatment group average, baseline to day 77, placebo 12.8%) [%]	Effect on weight / weight gain compared to vehicle [1]	Effect on weight / weight gain compared to vehicle ([1]; listed as compound A)	Binding to the IL-4 receptors (IL-4 receptors)	Macrophage activation (macrophages)	Activity on type I IL-4R (type I IL-4R)	Activity on type II IL-4R (type II IL-4R)
Compound A: dimer of SEQ ID NO:1 (AQFHRHKQLIRFLKRA) connected through a linker (lysine-beta-alanine) at the C-terminals (also: dimer of two chains joined at the C-termini through a Lys-βAla linker)	1.80 g and -1.60 g and 7.30 g and 4.40 g and 4.50 g and 2.70 g and -1.90 g and 8.00 g and 4.20 g and 11.20 g and 11.40 g and 3.20 g and -1.30 g and 0.90 g and 1.40 g	54.30 g (2×) and 47.30 g and 48.40 g and 52.50 g and 59.10 g and 47.60 g and 37.50 g and 57.30 g and 51.80 g and 58.10 g and 59.40 g and 52.40 g and 49.20 g and 49.40 g	3.51	48.66	7.8	significantly decreased the weight	decreased the weight gain				
AQFHRHKQLIRFLKRA [SEQ ID NO:1, 16-residue IL-4 derived peptide, variant of AA71-AA86 of IL-4]								capable of binding to the IL-4 receptors	inhibiting macrophage activation	high affinity partial agonist	antagonist
